Source: ChEMBL document CHEMBL3600317, “In silico investigation of FOXM1 binding and novel inhibitors in epithelial ovarian cancer” (Bioorg Med Chem, 2015)
pIC50: −log10 of the molar value. Activity calls are given as the source filed them. No cut-off for these calls is given here.

Legend:
OVCAR-3 [1] = assay: Cytotoxicity against human OVCAR3 cells after 72 hrs by sulforhodamine B assay; format: functional, cell-based; conditions: OVCAR-3, 72 h
SK-OV-3 [2] = assay: Cytotoxicity against human SKOV3 cells after 72 hrs by sulforhodamine B assay; format: functional, cell-based; conditions: SK-OV-3, 72 h
ES2 [3] = assay: Inhibition of FOXM1 protein expression in human ES2 cells at 1 uM by Western blot analysis; format: functional, cell-based
SK-OV-3 [4] = assay: Inhibition of CCNB1 protein expression in human SKOV3 cells at 1 uM by Western blot analysis; format: functional, cell-based
SK-OV-3 [5] = assay: Inhibition of CDC25B mRNA expression in human SKOV3 cells at 1 uM by RT-PCR analysis; format: functional, cell-based
ES2 [6] = assay: Inhibition of CDC25B mRNA expression in human ES2 cells at 1 uM by RT-PCR analysis; format: functional, cell-based
ES2 [7] = assay: Inhibition of CCNB1 protein expression in human ES2 cells at 1 uM by Western blot analysis; format: functional, cell-based
SK-OV-3 [8] = assay: Inhibition of FOXM1 mRNA expression in human SKOV3 cells at 1 uM by RT-PCR analysis; format: functional, cell-based
SK-OV-3 [9] = assay: Inhibition of FOXM1 protein expression in human SKOV3 cells at 1 uM by Western blot analysis; format: functional, cell-based
ES2 [10] = assay: Inhibition of CCNB1 mRNA expression in human ES2 cells at 1 uM by RT-PCR analysis; format: functional, cell-based
OVCAR-3 [11] = assay: Inhibition of CCNB1 protein expression in human OVCAR3 cells at 1 uM by Western blot analysis; format: functional, cell-based
SK-OV-3 [12] = assay: Inhibition of CCNB1 mRNA expression in human SKOV3 cells at 1 uM by RT-PCR analysis; format: functional, cell-based
OVCAR-3 [13] = assay: Inhibition of FOXM1 protein expression in human OVCAR3 cells at 1 uM by Western blot analysis; format: functional, cell-based
[14] = Cytotoxicity against human ES2 cells after 72 hrs by sulforhodamine B assay; format: functional, cell-based; conditions: ES-2, 72 h
ES2 [15] = assay: Inhibition of FOXM1 mRNA expression in human ES2 cells at 1 uM by RT-PCR analysis; format: functional, cell-based
ES2 [16] = assay: Cytotoxicity against human ES2 cells at 10 uM after 72 hrs by sulforhodamine B assay; format: functional, cell-based
SK-OV-3 [17] = assay: Cytotoxicity against human SKOV3 cells at 10 uM after 72 hrs by sulforhodamine B assay; format: functional
OVCAR-3 [18] = assay: Cytotoxicity against human OVCAR3 cells at 10 uM after 72 hrs by sulforhodamine B assay; format: functional
SK-OV-3 [19] = assay: Cytotoxicity against human SKOV3 cells at 1 nM to 100 uM after 72 hrs by sulforhodamine B assay; format: functional, cell-based
OVCAR-3 [20] = assay: Cytotoxicity against human OVCAR3 cells at 1 nM to 100 uM after 72 hrs by sulforhodamine B assay; format: functional, cell-based
ES2 [21] = assay: Cytotoxicity against human ES2 cells at 1 nM to 100 uM after 72 hrs by sulforhodamine B assay; format: functional, cell-based

## c1ccc(Nc2cc3ccccc3c3ccccc23)cc1
OVCAR-3 [1]
  pIC50: 6.00
SK-OV-3 [2]
  pIC50: 6.00
ES2 [3]
  inhibition: Active
SK-OV-3 [4]
  inhibition: Active
SK-OV-3 [5]
  inhibition: Active
ES2 [6]
  inhibition: Active
ES2 [7]
  inhibition: Active
SK-OV-3 [8]
  inhibition: Active
SK-OV-3 [9]
  inhibition: Active
ES2 [10]
  inhibition: Active
OVCAR-3 [11]
  inhibition: Active
SK-OV-3 [12]
  inhibition: Active
OVCAR-3 [13]
  inhibition: Active
[14]
  pIC50: 6.00
ES2 [15]
  inhibition: Active

## O=C(Nc1ccc2ncccc2c1)Nc1ccc2ncccc2c1
ES2 [16]
  Activity: inactive
SK-OV-3 [17]
  Activity: 20%
OVCAR-3 [18]
  Activity: 20%

## CC(=O)Nc1ccccc1[N+](=O)[O-]
SK-OV-3 [19]
  Activity: inactive
OVCAR-3 [20]
  Activity: inactive
ES2 [21]
  Activity: inactive
